Test results taken from US7211577B2, “Water-soluble phenylpyridazine derivative and medicine containing the same” (Kowa Co., Ltd., priority 2003, dated 2007).

How the values were obtained:
[1] = Water solubility test; format: physicochemical; conditions: for Dissolution in the added water (in words): 100 mL purified water added; for Solubility (%): purified water, from amount of water required for dissolution
Procedure: Experiment 2 (Water Solubility Test) Testing Method
Each sample compound was weighed in the amount shown in Table 3, to which purified water was added in 0.05 mL aliquots. The solubility (%) of the compound was determined based on the amount of water required for its dissolution.

[2] = Oral absorbability test on rats and/or mice; format: in vivo; conditions: orally administered to mice and/or rats, as in Experiment 3
Source text: Experiment 4 (Oral Absorbability Test on Rats and/or Mice)
In a similar manner as in Experiment 3, test compounds of Examples 23, 25, 143, 193, 245, 246, 247, 248 and 249 were orally administered to mice and/or rats to test their oral absorbability.

Row | Structure (SMILES) | Dissolution in the added water (in words) [1] | Solubility (%) [1] [%] | Oral absorbability (FIGS. 2 to 6) [2] | melting point
1 | COc1ccc(-c2cc(C(=O)O)c(=O)n(C/C=C/c3ccc(Cl)cc3)n2)cc1 [compound 4, reference compound] | (insoluble) | <0.001 | – | –
2 | COc1ccc(-c2cc(CN3CCN(C)CC3)c(=O)n(Cc3ccc(F)c(F)c3)n2)cc1F.Cl.Cl [Example 245, 2-(3,4-difluorobenzyl)-6-(3-fluoro-4-methoxyphenyl)-4-(4-methyl-1-piperazinyl)methyl-2H-pyridazin-3-one dihydrochloride] | – | 10 | good absorbability | –
3 | CSc1ccc(-c2cc(CN3CCN(C)CC3)c(=O)n(CC3CC3)n2)cc1.Cl.Cl [Example 149, 2-cyclopropylmethyl-4-(4-methyl-1-piperazinyl)methyl-6-[4-(methylthio)phenyl]-2H-pyridazin-3-one dihydrochloride] | – | >10 | – | 234.6 to 239.2 °C
4 | Cc1cc(-c2cc(CN(C)C)c(=O)n(CC(C)C)n2)ccc1F.Cl [Example 89, 4-dimethylaminomethyl-6-(4-fluoro-3-methylphenyl)-2-isobutyl-2H-pyridazin-3-one hydrochloride] | – | >20 | – | –
5 | COc1ccc(-c2cc(CN3CCNCC3)c(=O)n(CC3CC3)n2)cc1F.Cl.Cl [Example 21, 2-cyclopropylmethyl-6-(3-fluoro-4-methoxyphenyl)-4-(1-piperazinyl)methyl-2H-pyridazin-3-one dihydrochloride] | – | >20 | – | –
6 | CCOC(=O)Nc1cc(-c2ccc(OC)cc2)nn(C/C=C/c2ccc(Cl)cc2)c1=O [compound 1, reference compound] | (insoluble) | <0.001 | – | –
7 | CCN(CC)Cc1cc(-c2ccc(C)cc2)nn(CC(C)C)c1=O.Cl [Example 47, 4-diethylaminomethyl-2-isobutyl-6-(4-methylphenyl)-2H-pyridazin-3-one hydrochloride] | – | >20 | – | –
8 | COc1ccc(-c2cc(CN3CCN(Cc4ccccc4)CC3)c(=O)n(CC3CC3)n2)cc1F.Cl.Cl [Example 18, 4-(4-benzyl-1-piperazinyl)methyl-2-cyclopropylmethyl-6-(3-fluoro-4-methoxyphenyl)-2H-pyridazin-3-one dihydrochloride] | – | 1 | – | –
9 | CNC(=O)c1cc(-c2ccc(OC)cc2)nn(CC(C)C)c1=O [compound 2, reference compound] | (insoluble) | <0.001 | – | –
10 | Cc1cc(-c2cc(CN3CCN(C)CC3)c(=O)n(CC=Cc3ccc(Cl)cc3)n2)ccc1F.Cl.Cl [Example 143, 2-(4-chlorocinnamyl)-6-(4-fluoro-3-methylphenyl)-4-(4-methyl-1-piperazinyl)methyl-2H-pyridazin-3-one dihydrochloride] | – | 10 | good absorbability | 229.7 to 243.3 °C (dec.)
11 | COc1ccc(-c2cc(CCCN3CCNCC3)c(=O)n(CC3CC3)n2)cc1F.Cl.Cl [Example 214, 2-cyclopropylmethyl-6-(3-fluoro-4-methoxyphenyl)-4-[3-(1-piperazinyl)propyl]-2H-pyridazin-3-one dihydrochloride] | – | 10 | – | –
12 | COc1ccc(-c2cc(CN3CCNCC3)c(=O)n(Cc3ccc(F)cc3)n2)cc1F.Cl.Cl [Example 193, 2-(4-fluorobenzyl)-6-(3-fluoro-4-methoxyphenyl)-4-(1-piperazinyl)methyl-2H-pyridazin-3-one dihydrochloride] | – | 5 | good absorbability | –
13 | COc1ccc(-c2cc(CN)c(=O)n(Cc3ccc(F)cc3)n2)cc1F.Cl [Example 195, 4-aminomethyl-2-(4-fluorobenzyl)-6-(3-fluoro-4-methoxyphenyl)-2H-pyridazin-3-one hydrochloride] | – | 0.2 | – | –
14 | COc1ccc(-c2cc(CN(C)C)c(=O)n(Cc3ccc(F)c(F)c3)n2)cc1F.Cl [Example 246, 2-(3,4-difluorobenzyl)-4-dimethylaminomethyl-6-(3-fluoro-4-methoxyphenyl)-2H-pyridazin-3-one hydrochloride] | – | 2 | good absorbability | –
15 | COc1ccc(-c2cc(CN)c(=O)n(CC3CCCC3)n2)cc1F.Cl [Example 188, 4-aminomethyl-2-cyclopentylmethyl-6-(3-fluoro-4-methoxyphenyl)-2H-pyridazin-3-one hydrochloride] | – | 0.08 | – | –
16 | COc1ccc(-c2cc(CN)c(=O)n(Cc3ccc(Cl)cc3)n2)cc1F.Cl [Example 206, 4-aminomethyl-2-(4-chlorobenzyl)-6-(3-fluoro-4-methoxyphenyl)-2H-pyridazin-3-one hydrochloride] | – | 0.06 | – | –

Row | Structure (SMILES) | Dissolution in the added water (in words) [1] | Solubility (%) [1] [%] | Oral absorbability (FIGS. 2 to 6) [2] | melting point
17 | COc1ccc(-c2cc(CN3CCN(CCO)CC3)c(=O)n(CC=Cc3ccc(Cl)cc3)n2)cc1F.Cl.Cl [Example 249, 2-(4-chlorocinnamyl)-6-(3-fluoro-4-methoxyphenyl)-4-[4-(2-hydroxyethyl)-1-piperazinyl]methyl-2H-pyridazin-3-one dihydrochloride] | – | 0.03 | good absorbability | –
18 | Cc1cc(-c2cc(CN3CCN(C)CC3)c(=O)n(CCCc3ccc(Cl)cc3)n2)ccc1F.Cl.Cl [Example 247, 2-[3-(4-chlorophenyl)propyl]-6-(4-fluoro-3-methylphenyl)-4-(4-methyl-1-piperazinyl)methyl-2H-pyridazin-3-one dihydrochloride] | – | 10 | good absorbability | –
19 | COc1ccc(-c2cc(CN3CCN(C)CC3)c(=O)n(CC=Cc3ccc(Cl)cc3)n2)cc1F.Cl.Cl [Example 248, 2-(4-chlorocinnamyl)-6-(3-fluoro-4-methoxyphenyl)-4-(4-methyl-1-piperazinyl)methyl-2H-pyridazin-3-one dihydrochloride] | – | 0.06 | good absorbability | –
20 | COc1ccc(-c2cc(CN)c(=O)n(CC3CC3)n2)cc1F.Cl [Example 25, 4-aminomethyl-2-cyclopropylmethyl-6-(3-fluoro-4-methoxyphenyl)-2H-pyridazin-3-one hydrochloride] | – | 0.4 | good absorbability | –
21 | COc1ccc(-c2cc(CCCN)c(=O)n(CC3CC3)n2)cc1F.Cl [Example 217, 4-(3-aminopropyl)-2-cyclopropylmethyl-6-(3-fluoro-4-methoxyphenyl)-2H-pyridazin-3-one hydrochloride] | – | 10 | – | –
22 | Cc1cc(-c2cc(CN3CCN(C)CC3)c(=O)n(Cc3ccc(Cl)cc3)n2)ccc1F [Example 222, 2-(4-chlorobenzyl)-6-(4-fluoro-3-methylphenyl)-4-(4-methyl-1-piperazinyl)methyl-2H-pyridazin-3-one] | – | – | – | 133.3 to 133.8 °C
23 | CC(C)Cn1nc(-c2ccc([S+](C)[O-])cc2)cc(CN(C)C)c1=O.Cl (stereo not drawn) | – | – | – | 204.2 to 206 °C
24 | Cc1ccc(-c2cc(CN(C)C)c(=O)n(CC(C)C)n2)cc1.Cl [Example 45, 4-dimethylaminomethyl-2-isobutyl-6-(4-methylphenyl)-2H-pyridazin-3-one hydrochloride] | – | 4 | – | –
25 | Cc1ccc(-c2cc(CN3CCNCC3)c(=O)n(CC(C)C)n2)cc1F.Cl.Cl | – | – | – | 186.2 to 195 °C (dec.)
26 | COc1ccc(-c2cc(CN(C)C)c(=O)n(CC(C)C)n2)cc1F.Cl | – | – | – | 212.4 to 212.8 °C
27 | COc1ccc(-c2cc(CN3CCN(C)CC3)c(=O)n(Cc3ccc(F)cc3)n2)cc1F [Example 189, 2-(4-fluorobenzyl)-6-(3-fluoro-4-methoxyphenyl)-4-(4-methyl-1-piperazinyl)methyl-2H-pyridazin-3-one] | – | – | – | 112 to 113 °C
28 | COc1ccc(-c2cc(CN)c(=O)n(CCCc3ccc(F)cc3)n2)cc1F [Example 200, 4-aminomethyl-6-(3-fluoro-4-methoxyphenyl)-2-[3-(4-fluorophenyl)propyl]-2H-pyridazin-3-one] | – | – | – | 82 to 84 °C
29 | Cc1cc(-c2cc(CN3CCN(C)CC3)c(=O)n(Cc3ccccc3Cl)n2)ccc1F.Cl.Cl | – | – | – | 191 to 202 °C (dec.)
30 | CC(C)Cn1nc(-c2ccc(S(C)(=O)=O)cc2)cc(CN2CCN(C)CC2)c1=O.Cl.Cl | – | – | – | 224.5 to 228 °C
31 | CC(C)Cn1nc(-c2ccc(F)c(F)c2)cc(CN(C)C)c1=O.Cl | – | – | – | 226.5 to 227.7 °C
32 | Cc1cc(-c2cc(CCCN)c(=O)n(Cc3ccccc3Cl)n2)ccc1F [Example 227, 4-(3-aminopropyl)-2-(2-chlorobenzyl)-6-(4-fluoro-3-methylphenyl)-2H-pyridazin-3-one] | – | – | – | 80 to 85 °C
